Test results: patent publication US12492195B2, “Preparation method for and crystal form of 3-aryloxy-3-five-membered heteroaryl-propylamine compound” (Zhangzhou Pien Tze Huang Pharmaceutical Co., Ltd., priority 2020, dated 2025)

Legend:
C57 mice = assay: hot plate pain model in mice; format: in vivo; conditions: 10 mg/kg intraperitoneal, hot plate 55° C.
Method: SPF-grade C57 male mice were placed at hot plate with constant 55±0.1° C. […] If the pain reaction of mice was observed, the mice were taken out immediately to prevent mice from scalding. […] Appropriate amount of test compounds were added into required volume of physiological saline and fully suspended, and the concentration of the drug compound was prepared as 1 mg/ml. The standard volume of administration to mice was 10 ml/kg (or 0.1 ml/10 g). The administration mode was intraperitoneal administration. […] The administration volume was 10 ml/kg. […] Hot plate observation indicator is the time latency of mice on the hot plate at 55±0.1° C. Measurement and recording were conducted at 3 h before administration and 15 min, 30 min, and 60 min after administration. Maximum possible effect (MPE) % was used to evaluate analgesic effect of each compound, i.e., MPE %=[(Post drug latency-baseline latency)/(30-baseline latency)]×100. MPE % at different time points was recorded. The higher the value of MPE % was, the stronger the analgesic effect of the compound was.

TRPA1 = target: T1, TRPA1 (Mus musculus, UniProt Q8BLA8); assay: IonWorks Barracuda (IWB) automated patch clamp detection of TRPA1 inhibitory activity; format: cell-based; conditions: HEK293 cells stably expressing TRPA1, AITC-induced current
T1 construct: expressed in transfected cells
T1 sequence (Q8BLA8 whole entry): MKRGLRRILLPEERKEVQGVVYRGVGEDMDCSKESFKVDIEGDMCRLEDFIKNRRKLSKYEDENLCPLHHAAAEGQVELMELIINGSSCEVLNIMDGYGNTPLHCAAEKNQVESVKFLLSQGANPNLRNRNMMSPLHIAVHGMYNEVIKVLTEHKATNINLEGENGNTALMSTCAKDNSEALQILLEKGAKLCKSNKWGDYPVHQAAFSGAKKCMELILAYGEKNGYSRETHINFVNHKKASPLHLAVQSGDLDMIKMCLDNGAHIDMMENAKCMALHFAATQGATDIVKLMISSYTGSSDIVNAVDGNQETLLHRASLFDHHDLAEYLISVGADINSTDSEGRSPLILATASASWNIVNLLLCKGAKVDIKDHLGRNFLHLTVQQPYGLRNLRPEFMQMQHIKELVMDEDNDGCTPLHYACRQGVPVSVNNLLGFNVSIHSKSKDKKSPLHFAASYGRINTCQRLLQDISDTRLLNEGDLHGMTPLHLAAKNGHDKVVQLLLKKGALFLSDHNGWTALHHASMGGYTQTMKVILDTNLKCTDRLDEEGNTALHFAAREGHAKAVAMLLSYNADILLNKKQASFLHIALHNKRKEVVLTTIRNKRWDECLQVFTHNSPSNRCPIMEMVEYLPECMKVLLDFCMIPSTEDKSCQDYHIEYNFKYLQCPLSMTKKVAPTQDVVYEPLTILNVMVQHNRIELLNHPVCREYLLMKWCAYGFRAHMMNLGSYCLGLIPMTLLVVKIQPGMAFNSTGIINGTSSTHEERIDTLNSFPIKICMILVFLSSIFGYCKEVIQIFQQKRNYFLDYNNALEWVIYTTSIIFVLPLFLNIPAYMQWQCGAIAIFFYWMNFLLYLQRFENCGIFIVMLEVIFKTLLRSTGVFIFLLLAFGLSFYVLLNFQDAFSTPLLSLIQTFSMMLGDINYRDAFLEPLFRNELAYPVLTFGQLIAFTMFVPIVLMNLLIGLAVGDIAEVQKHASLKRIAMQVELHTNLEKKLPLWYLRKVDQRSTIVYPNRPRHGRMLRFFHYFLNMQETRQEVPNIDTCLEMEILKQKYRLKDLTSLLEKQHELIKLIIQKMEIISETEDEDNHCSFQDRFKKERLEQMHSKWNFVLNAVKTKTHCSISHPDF
Method: IonWorks Barracuda (IWB) automated patch clamp detection was used as test method: HEK293 cells stably expressing TRPA1 were placed in the T175 culture flask with DMEM medium containing 15 μg/mL Blasticidin S HCl, 200 μg/mL Hygromycin B and 10% FBS, and cultured in an incubator in 5% CO2 at 37° C. When the cell density reached about 80%, the culture medium was removed, the residue was rinsed once with phosphate buffered saline (PBS) without calcium and magnesium. 3 mL of Trypsin was added to digest for 2 min, 7 mL of culture medium was added to terminate the digestion. The cells were collected to 15 mL centrifuge tube and centrifuged at 800 rpm for 3 min. After the supernatant was removed, the cells were added to appropriate volume of extracellular fluid for re-suspending, and the cell density was controlled at 2-3×10^6/mL for IWB experiment. The formulation of extracellular fluid (in mM) was 140 NaCl, 5 KCl, 1 MgCl2, 10 HEPES, 0.5 EGTA, 10 Glucose (pH 7.4); the formulation of intracellular fluid (in mM) was 140 CsCl, 10 HEPES, 5 EGTA, 0.1 CaCl2), 1 MgCl2 (pH 7.2). 28 mg/mL of amphotericin B was freshly prepared with DMSO on the day of experiment, and then final concentration of 0.1 mg/mL of that was prepared with intracellular fluid.
Population patch clamp (PPC) plate was used in IWB experiment. The entire detection process was automatically carried out by the instrument. […]
The record of data and the export of current amplitude measurement were carried out by IWB software (version 2.5.3, Molecular Devices Corporation. Union City, CA). No statistics was recorded for wells with sealing impedance lower than 20 MΩ. […] TRPA1 current amplitude was measured at ±100 mV. […] The dose-effect curve of compounds and IC50 were fitted and calculated by GraphPad Prism 5.02 (GraphPad Software, San Diego, CA).

ICR mice = assay: acetic acid writhing pain model in mice; format: in vivo; conditions: 10 mg/kg intragastric, acetic acid 1 h after administration
Method: Male ICR mice, weighed 22-25 g, were fasted but allowed to drink water freely for 2 h before administration. All ICR mice were weighed and grouped randomly, and the number of animals in each group was greater than 10. […] […] The drug was administrated intragastrically based on the weight of mice. 1.5% acetic acid solution (0.1 ml/10 g) was injected intraperitoneally 1 hour after administration, and the frequency of visceral pain in each group of mice within 30 min was observed. When concave abdomen, stretched trunk and hind paw, and high buttocks appeared, one number point was recorded. Finally, the number of appearance of the above phenomenon was counted within 30 minutes.

TRPV4 = target: T2, TRPV4 (Homo sapiens, UniProt Q9HBA0); assay: Manual patch clamp detection on TRPV4 channel; format: cell-based; conditions: 40.00 μM, positive compound
T2 construct: expressed in transfected cells
T2 sequence (Q9HBA0 whole entry, species assumed): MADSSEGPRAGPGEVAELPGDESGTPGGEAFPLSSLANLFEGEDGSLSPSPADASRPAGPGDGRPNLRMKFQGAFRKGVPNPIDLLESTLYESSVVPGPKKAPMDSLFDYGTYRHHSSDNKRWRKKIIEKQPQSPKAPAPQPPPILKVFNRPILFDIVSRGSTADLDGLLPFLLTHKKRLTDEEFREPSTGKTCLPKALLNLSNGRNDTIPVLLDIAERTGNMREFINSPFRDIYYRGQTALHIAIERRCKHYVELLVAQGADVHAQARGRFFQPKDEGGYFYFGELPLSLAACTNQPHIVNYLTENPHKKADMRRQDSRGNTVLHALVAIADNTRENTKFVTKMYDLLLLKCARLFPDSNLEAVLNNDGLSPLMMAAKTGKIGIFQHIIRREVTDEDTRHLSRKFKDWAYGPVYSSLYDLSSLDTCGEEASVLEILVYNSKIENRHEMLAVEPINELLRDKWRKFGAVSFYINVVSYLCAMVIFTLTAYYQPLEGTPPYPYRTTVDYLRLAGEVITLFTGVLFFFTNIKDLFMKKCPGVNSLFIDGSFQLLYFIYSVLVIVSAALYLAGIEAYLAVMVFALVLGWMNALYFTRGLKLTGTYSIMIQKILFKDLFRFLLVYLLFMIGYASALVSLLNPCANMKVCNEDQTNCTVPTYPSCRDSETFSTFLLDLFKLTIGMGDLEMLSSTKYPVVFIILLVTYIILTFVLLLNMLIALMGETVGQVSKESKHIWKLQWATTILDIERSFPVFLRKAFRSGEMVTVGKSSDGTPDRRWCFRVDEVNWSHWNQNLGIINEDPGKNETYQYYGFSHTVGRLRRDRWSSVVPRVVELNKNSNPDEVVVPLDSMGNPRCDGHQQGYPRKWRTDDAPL
Method: (§1) TRPV4 cells were cultured in a cell culture dish with a diameter of 35 mm, placed in an incubator in 5% CO2 at 37° C., and passaged at a ratio of 1:5 every 48 hours. The formula of medium was 90% DMEM (Invitrogen), 10% fetal bovine serum (Gibco), 2 mM L-glutamine, 50 μg/mL Hygromycin B (Invitrogen) and 5 μg/mL Blasticidine HCl (Invitrogen). Before electrophysiological patch clamp experiment, the cell culture medium was replaced with medium containing 1 μg/mL doxycycline for at least 16 hours to induce the expression of TRPV4.
(§2) On the day of the experiment, the cell culture medium was aspirated, the cell were rinsed once with extracellular fluid, and then 0.25% Trypsin-EDTA (Invitrogen) solution was added, and digested at room temperature for 1-2 minutes. The digestion solution was aspirated, the cell were resuspended with extracellular fluid, and transferred to the experimental dish for electrophysiological recording for further experiment. […]
(§3) HEK293 cells stably expressing TRP channels, the corresponding agonist-induced channel current was recorded by whole-cell patch clamp technique at room temperature. […] Clamp voltages and data recording were controlled and recorded by a computer using pClamp 11 software with the sampling frequency of 10 kHz and the filtering frequency of 2 kHz. […] After the current was evoked for more than 40 s and no attenuation was determined, the dosing process started. […]

TRPV1 = target: T3, TRPV1 (Homo sapiens, UniProt Q8NER1); assay: Manual patch clamp detection on TRPV1 channel; format: cell-based; conditions: HEK293, Capsaicin-induced current
T3 construct: expressed in transfected cells
T3 sequence (Q8NER1 whole entry, species assumed): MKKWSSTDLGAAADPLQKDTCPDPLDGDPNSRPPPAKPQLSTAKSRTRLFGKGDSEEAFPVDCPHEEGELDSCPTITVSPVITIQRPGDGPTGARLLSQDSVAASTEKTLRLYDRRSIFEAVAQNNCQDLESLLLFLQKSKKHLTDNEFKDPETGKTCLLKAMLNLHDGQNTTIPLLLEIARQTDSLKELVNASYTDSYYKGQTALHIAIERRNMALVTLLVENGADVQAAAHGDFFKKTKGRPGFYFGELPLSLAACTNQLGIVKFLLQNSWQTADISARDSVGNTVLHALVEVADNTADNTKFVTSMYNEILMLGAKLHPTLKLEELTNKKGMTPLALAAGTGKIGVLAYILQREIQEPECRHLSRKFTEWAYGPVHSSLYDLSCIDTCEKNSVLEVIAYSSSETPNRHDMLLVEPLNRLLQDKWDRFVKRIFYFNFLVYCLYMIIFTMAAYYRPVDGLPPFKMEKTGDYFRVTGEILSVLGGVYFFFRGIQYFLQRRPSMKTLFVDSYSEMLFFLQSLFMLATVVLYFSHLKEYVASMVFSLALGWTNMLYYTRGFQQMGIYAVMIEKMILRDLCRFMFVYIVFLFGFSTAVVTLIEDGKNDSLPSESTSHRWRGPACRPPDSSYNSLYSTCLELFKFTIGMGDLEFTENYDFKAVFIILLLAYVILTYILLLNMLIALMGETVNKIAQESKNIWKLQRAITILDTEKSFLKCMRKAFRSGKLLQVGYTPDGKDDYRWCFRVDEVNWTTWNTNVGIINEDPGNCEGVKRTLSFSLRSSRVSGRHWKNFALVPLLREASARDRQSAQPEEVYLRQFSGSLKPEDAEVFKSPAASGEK
Method: TRPV1 cells were cultured in a cell culture dish with a diameter of 35 mm, placed in a 37° C., 5% CO2 incubator, and passaged at a ratio of 1:5 every 48 hours. Medium formula: 90% DMEM (Invitrogen), 10% Fetal bovine serum (Gibco). 2 mM L-glutamine, 50 μg/mL Hygromycin B (Invitrogen) and 5 μg/mL Blasticidine HCl (Invitrogen). Before electrophysiological patch clamp experiments, the cell culture medium was replaced with medium containing 1 μg/mL Doxycycline for at least 16 hours to induce the expression of TRPV1.
as §2, §3

SD rats = assay: SNL model in rats, mechanical hyperalgesia test; format: in vivo; conditions: 100 mg/kg by gavage, 1 hour after administration
Method: Male SPF grade SD rats, weighed 150-180 g, were selected. Aseptic operation during surgery was performed. The animals were anesthetized with sodium pentobarbital (50 mg/kg, intraperitoneal injection). The surgical area of animal waist was shaved and the skin was disinfected three times with iodophor and 70% ethanol. After the skin was dried, the operation was started. Surgical knife was used to make a longitudinal incision at the back of the sacrum of the animal waist to expose the left paraspinal muscles, and distractor was used to separate muscle tissue to expose the spine. The left spinal nerves L5 and L6 were separated and ligated with a 6-0 silk thread, and the wound was sutured. […]
The animals were weighed to calculate the dosage. […] During the test, rapid paw withdrawal of animal was recorded as pain response. When the test fiber was removed from animal skin, the paw withdrawal of animal was also recorded as pain response. If animal moved or walked, the pain response was not recorded and the test was repeated. […]
Mechanical hyperalgesia was expressed as paw withdrawal threshold (PWT) in rat behavioral test, which was calculated with the following formula: 50% response threshold (g)=(10^(Xf+k))/10,000; • Xf=the final test fiber value used in the test; • k=table value; • =mean difference

TRPM8 = target: T4, TRPM8 (Homo sapiens, UniProt Q7Z2W7); assay: Manual patch clamp detection on TRPM8 channel; format: cell-based; conditions: 20.00 μM, positive compound
T4 construct: expressed in transfected cells
T4 sequence (Q7Z2W7 whole entry, species assumed): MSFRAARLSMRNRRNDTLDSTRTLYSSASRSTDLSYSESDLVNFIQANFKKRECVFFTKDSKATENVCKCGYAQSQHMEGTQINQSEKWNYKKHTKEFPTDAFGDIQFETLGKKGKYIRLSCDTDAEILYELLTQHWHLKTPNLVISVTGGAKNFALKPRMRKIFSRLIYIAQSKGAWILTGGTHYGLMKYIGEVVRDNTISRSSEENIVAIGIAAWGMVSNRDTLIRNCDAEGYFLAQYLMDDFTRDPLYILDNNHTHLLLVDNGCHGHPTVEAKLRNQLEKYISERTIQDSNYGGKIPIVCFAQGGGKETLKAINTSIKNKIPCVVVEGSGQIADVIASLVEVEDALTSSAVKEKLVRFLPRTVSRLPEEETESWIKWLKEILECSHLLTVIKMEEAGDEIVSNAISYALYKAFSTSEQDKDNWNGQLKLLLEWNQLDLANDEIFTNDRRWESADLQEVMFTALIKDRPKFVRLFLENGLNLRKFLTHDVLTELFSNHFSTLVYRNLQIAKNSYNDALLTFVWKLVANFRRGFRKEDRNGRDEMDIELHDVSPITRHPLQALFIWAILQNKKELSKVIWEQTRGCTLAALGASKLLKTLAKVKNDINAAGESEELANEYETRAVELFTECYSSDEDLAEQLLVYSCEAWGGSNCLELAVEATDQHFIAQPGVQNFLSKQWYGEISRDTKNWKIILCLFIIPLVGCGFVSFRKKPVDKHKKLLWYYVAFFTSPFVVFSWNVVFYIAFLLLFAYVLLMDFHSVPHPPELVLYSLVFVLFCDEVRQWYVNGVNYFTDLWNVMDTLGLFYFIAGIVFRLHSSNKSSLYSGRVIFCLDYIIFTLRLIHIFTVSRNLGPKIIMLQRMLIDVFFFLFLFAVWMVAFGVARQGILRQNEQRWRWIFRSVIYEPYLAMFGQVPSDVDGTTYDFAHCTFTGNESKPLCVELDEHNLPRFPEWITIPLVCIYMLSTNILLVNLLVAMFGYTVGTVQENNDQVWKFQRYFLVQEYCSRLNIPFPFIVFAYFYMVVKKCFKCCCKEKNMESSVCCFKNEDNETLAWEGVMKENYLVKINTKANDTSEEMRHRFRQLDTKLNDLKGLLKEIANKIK
Method: as §1, with “TRPM8” for “TRPV4”, “TRPM8 expression.” for “the expression of TRPV4.”
On the day of the experiment, the cell culture medium was aspirated, the cell were rinsed once with extracellular fluid, and then 0.25% Trypsin-EDTA (Invitrogen) solution was added, and digested at room temperature for 1-2 minutes. The digestion solution was aspirated, the cell were resuspended with extracellular fluid, and transferred to the experimental dish for electrophysiological recording for further experiment.
Preparation of menthol: 100.00 mM of DMSO stock solution of menthol was added to the extracellular solution, diluting 1000-fold to 100.00 μM of menthol solution.
Preparation of AMTB: 5 μL of DMSO stock solution (20.00 mM) of AMTB was added to 4995 μL of menthol solution (100.00 uM), diluting 1000-fold to obtain the final concentration of 20.00 μM AMTB to be tested.
Preparation of IC-1: 20.00 mM or 10.00 mM of stock solution of IC-1 was taken and added to the agonist solution of the corresponding channel, diluting 1000 or 2000-fold to the final concentration of 10.00 μM of […] solution to be tested.
as §3

NCC[C@H](Oc1cccc2ccoc12)c1cccs1 [IC-23, (S)-3-(benzofuran-7-yloxy)-3-(thiophen-2-yl)propan-1-amine]
analgesic activity compared with the positive controls gabapentin and duloxetine (C57 mice): significantly stronger than that of 100 mg/kg of gabapentin
analgesic effect (MPE %) compared with the saline control group (C57 mice; within 60 min): very potent analgesic effect

CNCC[C@H](Oc1cccc2c1CCC2)c1ccccc1 [Compound C1]
IC50 (TRPA1): 20 to 50 µM

CN1[C@H]2C[C@H](OC(=O)[C@H](CO)c3ccccc3)C[C@@H]1[C@@H](O)C2 [anisodamine, reference compound]
frequency of writhing response within 30 min (ICR mice): 27 times

N.N.N.N.N.N.N.N.N.N.N.N.N.N.[Cl-].[Cl-].[Cl-].[Cl-].[Cl-].[Cl-].[O-2].[O-2].[Ru+3].[Ru+3].[Ru+4] [RR, Ruthenium Red, reference compound]
Inhibition % of TRPV4 current (TRPV4): over 90%

Oc1cc2c(cc1O)CN(C(=S)NCCc1ccc(Cl)cc1)CCC2 [Capsazepine, reference compound]
inhibition at 10 µM (TRPV1): > 90%

NCC1(CC(=O)O)CCCCC1 [Gabapentin, reference compound]
PWT (SD rats): 6.352 ± 1.897 g

Cc1cccc(COc2ccccc2C(=O)N(CCCN)Cc2cccs2)c1 [AMTB, reference compound]
Inhibition % of TRPM8 current (TRPM8): over 90%
